Laboratory results as given in ChEMBL document CHEMBL1201862, “PubChem BioAssay data set” (2004).
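Protocol summary: plate cells (96-well), add compound at 5 concentrations, incubate 48 h, interpolate endpoints linearly. GI50 = concentration required for 50% inhibition of growth.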 Active and inactive are the calls of the source. Cut-off read from the data, not from the text of the source: active = GI50 up to about 1.1 µM and inactive = higher.

Assays:
Experiment in all cases: NCI tumour cell line growth inhibition, 48 h
ACHN = system: ACHN
DU-145 = system: DU-145
HL-60 = system: HL-60
HT-29 = system: HT-29
K562 = system: K562
MDA-MB-435 = system: MDA-MB-435
Malme-3M = system: Malme-3M
NCI-H23 = system: NCI-H23
NCI-H460 = system: NCI-H460
NCI/ADR-RES = system: NCI/ADR-RES
SF-268 = system: SF-268
SF-295 = system: SF-295
SF-539 = system: SF-539
SK-MEL-5 = system: SK-MEL-5
SN12C = system: SN12C
SNB-19 = system: SNB-19
SNB-75 = system: SNB-75
U-251 = system: U-251
UACC-62 = system: UACC-62
UO-31 = system: UO-31

Compound | GI50 (ACHN) | GI50 (DU-145) | GI50 (HL-60) | GI50 (HT-29) | GI50 (K562) | GI50 (MDA-MB-435) | GI50 (Malme-3M) | GI50 (NCI-H23) | GI50 (NCI-H460) | GI50 (NCI/ADR-RES) | GI50 (SF-268) | GI50 (SF-295) | GI50 (SF-539) | GI50 (SK-MEL-5) | GI50 (SN12C) | GI50 (SNB-19) | GI50 (SNB-75) | GI50 (U-251) | GI50 (UACC-62) | GI50 (UO-31)
Nc1ncnc2c1ncn2C1OC(CO)C2OC21 (stereo not given) | > 100 µM (inactive) | > 100 µM (inactive) | > 100 µM (inactive) | > 100 µM (inactive) | 72.8 µM (inactive) | > 10 µM (inactive) | > 10 µM (inactive) | > 100 µM (inactive) | > 10 µM (inactive) | > 10 µM (inactive) | > 100 µM (inactive) | > 100 µM (inactive) | > 100 µM (inactive) | > 100 µM (inactive) | > 100 µM (inactive) | > 100 µM (inactive) | > 100 µM (inactive) | > 100 µM (inactive) | > 100 µM (inactive) | > 100 µM (inactive)
CC(C)(C)OC(=O)NCCCNC1(c2cc3ccccc3s2)CCCCC1 | 19.2 µM (inactive) | 16.9 µM (inactive) | 10.5 µM (inactive) | 3.15 µM (inactive) | 10.5 µM (inactive) | 14.7 µM (inactive) | 15.9 µM (inactive) | 13 µM (inactive) | 14.3 µM (inactive) | 15.2 µM (inactive) | 16.7 µM (inactive) | 14.8 µM (inactive) | 18.4 µM (inactive) | 13.9 µM (inactive) | 15.3 µM (inactive) | 13.6 µM (inactive) | 15.6 µM (inactive) | 21.3 µM (inactive) | 17.4 µM (inactive) | 12.6 µM (inactive)
CC(=O)Nc1ccccc1SCCSSCCSc1ccccc1NC(C)=O | 20.6 µM (inactive) | 25.6 µM (inactive) | 17.4 µM (inactive) | 28.8 µM (inactive) | 28.6 µM (inactive) | 19.5 µM (inactive) | 34.7 µM (inactive) | 30.1 µM (inactive) | 25.1 µM (inactive) | 31.8 µM (inactive) | 38.2 µM (inactive) | 26.7 µM (inactive) | 24 µM (inactive) | 38.5 µM (inactive) | 32.4 µM (inactive) | 17.7 µM (inactive) | 24.3 µM (inactive) | 26.5 µM (inactive) | 32 µM (inactive) | 17.8 µM (inactive)
CC1(C)CC[C@]2(C(=O)O)CC[C@]3(C)C(=CC[C@@H]4[C@@]5(C)C[C@H](O)[C@H](O)[C@@](C)(CO)C5=CC[C@]43C)[C@@H]2C1 | 34.8 µM (inactive) | 39.6 µM (inactive) | > 100 µM (inactive) | 55.5 µM (inactive) | 50 µM (inactive) | > 100 µM (inactive) | > 100 µM (inactive) | 46.8 µM (inactive) | 21.3 µM (inactive) | 41.1 µM (inactive) | 43.1 µM (inactive) | 25.8 µM (inactive) | > 100 µM (inactive) | > 100 µM (inactive) | 51.9 µM (inactive) | 42.7 µM (inactive) | 32.1 µM (inactive) | 61.7 µM (inactive) | > 100 µM (inactive) | 39.3 µM (inactive)
COC(=O)Cc1c([C@H]2[C@H](CC(=O)OC)c3ccccc3N2C(C)=O)[nH]c2ccccc12 | > 100 µM (inactive) | > 100 µM (inactive) | 85.3 µM (inactive) | > 100 µM (inactive) | 50.8 µM (inactive) | > 100 µM (inactive) | > 100 µM (inactive) | 50.9 µM (inactive) | 96.8 µM (inactive) | > 100 µM (inactive) | > 100 µM (inactive) | 72.8 µM (inactive) | > 100 µM (inactive) | > 100 µM (inactive) | > 100 µM (inactive) | > 100 µM (inactive) | > 100 µM (inactive) | 91.2 µM (inactive) | > 100 µM (inactive) | 39.9 µM (inactive)
COCC(/N=C\N1CCCc2ccccc2[C@@H]1CCCCl)C(C)(C)C (stereo not given in full) | 16.9 µM (inactive) | > 100 µM (inactive) | 0.619 µM (active) | 1.54 µM (inactive) | 0.512 µM (active) | 11.7 µM (inactive) | 0.332 µM (active) | 0.421 µM (active) | 35.7 µM (inactive) | 0.392 µM (active) | > 100 µM (inactive) | 17.2 µM (inactive) | 12.1 µM (inactive) | 1.31 µM (inactive) | 17.1 µM (inactive) | 18.7 µM (inactive) | 3.01 µM (inactive) | 6.89 µM (inactive) | 10.3 µM (inactive) | 12.2 µM (inactive)
NC1=CN2c3ccccc3N(CC(=O)N3CCOCC3)C2C=C1 (stereo not given) | > 100 µM (inactive) | > 100 µM (inactive) | > 100 µM (inactive) | > 100 µM (inactive) | > 100 µM (inactive) | > 100 µM (inactive) | > 100 µM (inactive) | > 100 µM (inactive) | > 100 µM (inactive) | > 100 µM (inactive) | > 100 µM (inactive) | > 100 µM (inactive) | > 100 µM (inactive) | > 100 µM (inactive) | > 100 µM (inactive) | > 100 µM (inactive) | > 100 µM (inactive) | > 100 µM (inactive) | > 100 µM (inactive) | > 100 µM (inactive)
CC(=O)N(CN1C(=O)CCC1C(=O)O)c1cccc(O)c1 (stereo not given) | > 100 µM (inactive) | > 100 µM (inactive) | > 100 µM (inactive) | > 100 µM (inactive) | > 100 µM (inactive) | > 100 µM (inactive) | > 100 µM (inactive) | > 100 µM (inactive) | > 100 µM (inactive) | > 100 µM (inactive) | > 100 µM (inactive) | > 100 µM (inactive) | > 100 µM (inactive) | > 100 µM (inactive) | > 100 µM (inactive) | > 100 µM (inactive) | > 100 µM (inactive) | > 100 µM (inactive) | > 100 µM (inactive) | > 100 µM (inactive)
C/C(=N\Nc1nc2ccccc2o1)c1cc(C)ncn1 | < 0.0189 µM (active) | 0.171 µM (active) | < 0.01 µM (active) | < 0.01 µM (active) | 0.0356 µM (active) | 0.319 µM (active) | 0.0327 µM (active) | 0.102 µM (active) | 0.0455 µM (active) | 0.0242 µM (active) | 0.031 µM (active) | 0.0745 µM (active) | 0.107 µM (active) | 0.0381 µM (active) | < 0.0205 µM (active) | 0.405 µM (active) | 0.151 µM (active) | 0.128 µM (active) | 0.0867 µM (active) | 0.019 µM (active)
O=C1NC(=O)C(F)(n2cc(F)c(=O)[nH]c2=O)C(O)N1 (stereo not given) | > 10 µM (inactive) | > 10 µM (inactive) | > 10 µM (inactive) | > 10 µM (inactive) | > 10 µM (inactive) | > 10 µM (inactive) | > 10 µM (inactive) | > 10 µM (inactive) | > 10 µM (inactive) | > 10 µM (inactive) | > 10 µM (inactive) | > 10 µM (inactive) | > 10 µM (inactive) | > 10 µM (inactive) | > 10 µM (inactive) | > 10 µM (inactive) | > 10 µM (inactive) | > 10 µM (inactive) | > 10 µM (inactive) | > 10 µM (inactive)
Nc1nc(SCC(=O)c2ccccc2)nc2nc3c(c(-c4ccccc4)c12)CCCC3 | 56.6 µM (inactive) | > 100 µM (inactive) | > 100 µM (inactive) | 27.1 µM (inactive) | > 100 µM (inactive) | 32.6 µM (inactive) | 52.4 µM (inactive) | 76.2 µM (inactive) | 32.9 µM (inactive) | 25.6 µM (inactive) | 18.4 µM (inactive) | > 10 µM (inactive) | > 100 µM (inactive) | 49.1 µM (inactive) | 38.5 µM (inactive) | 49.9 µM (inactive) | 26.4 µM (inactive) | 32 µM (inactive) | 23.3 µM (inactive) | 12.4 µM (inactive)
COCOc1cc(OC)ccc1C=O | 95.7 µM (inactive) | 53.3 µM (inactive) | 26.7 µM (inactive) | 25.6 µM (inactive) | 23.9 µM (inactive) | 8.39 µM (inactive) | 11.6 µM (inactive) | 35.6 µM (inactive) | 38.5 µM (inactive) | 17.3 µM (inactive) | 64.9 µM (inactive) | 39 µM (inactive) | 21.5 µM (inactive) | 27.4 µM (inactive) | 34.5 µM (inactive) | 46.1 µM (inactive) | 27.5 µM (inactive) | 30 µM (inactive) | 54.2 µM (inactive) | 64 µM (inactive)
CC(C)(C)C(=O)CC(=O)C(F)(F)C(F)(F)C(F)(F)F | 15.3 µM (inactive) | 36.1 µM (inactive) | 19.2 µM (inactive) | 17.1 µM (inactive) | 15.8 µM (inactive) | 15.5 µM (inactive) | 22.1 µM (inactive) | 12.6 µM (inactive) | 12.9 µM (inactive) | 18.6 µM (inactive) | 17 µM (inactive) | 17.5 µM (inactive) | 24.8 µM (inactive) | 7.19 µM (inactive) | 13.9 µM (inactive) | 20 µM (inactive) | 16.6 µM (inactive) | 18.4 µM (inactive) | 15.3 µM (inactive) | 20 µM (inactive)
CC(C)CC(NC(O)[BH2-][N+](C)(C)C)C(=O)NC(Cc1ccccc1)C(=O)N[C@H]1c2ccsc2/C(=N/O)[C@H]1O (stereo not given in full) | > 100 µM (inactive) | > 100 µM (inactive) | > 100 µM (inactive) | > 100 µM (inactive) | > 100 µM (inactive) | > 100 µM (inactive) | > 100 µM (inactive) | > 100 µM (inactive) | > 100 µM (inactive) | > 100 µM (inactive) | > 100 µM (inactive) | > 100 µM (inactive) | > 100 µM (inactive) | > 100 µM (inactive) | > 100 µM (inactive) | > 100 µM (inactive) | > 100 µM (inactive) | > 100 µM (inactive) | > 100 µM (inactive) | > 100 µM (inactive)
